For this assay, the system named is dihydrofolate reductase (DHFR). The following applies: 1 uM TMP.

Read-outs that look alike come from different tables or passages of the source.

Method: Immediately before applying DOPC/DGS NTA (Ni) lipids, clean microscope slides with Piranha wash for 20 minutes. Rinse 3× with diH2O in a slide staining vessel. Dry slides with compressed Nitrogen. Assemble SHG wells by attaching adhesive gaskets to Piranha-cleaned slides (i.e., 16 wells per slide containing 10-20 μl volume). Use an assembly jig to align gaskets, carefully lay slide into jig and press firmly. Dilute DOPC/DGS NTA (Ni) lipid prep 1:1 with PBS or TBS buffers. 100 mM NaCl is required to reduce hydrostatic charge of the glass slide and enable the supported lipid bilayer (SLB) to form. Pipet 10-20 μL of diluted DOPC/DGS NTA (Ni) lipid into the wells of the slide and incubate for 5 minutes at room temperature. Wash the wells by submersing the slide in buffer bath (PBS or TBS) and agitating with a 200 μL pipettor taking care not to introduce air into the wells at any time. Exchange the entire volume of buffer in the bath with fresh buffer and repeat the washing step 2 more times. Add a 1:1 volume of 100 mM NiCl2 solution to all wells and incubate for 10 minutes at room temperature. Wash the wells by submersing the slide in buffer bath (PBS or TBS) and agitating with a 200 μL pipettor. Exchange the entire volume of buffer in bath with fresh buffer and repeat the washing step 2 more times. […]

Turning to `COc1cc(Cc2cnc(N)nc2N)cc(OC)c1OC` [TMP, trimethoprim], the “decrease in baseline signal (SHG % change, Izzz)” value is “approximately 90%” (cysteine-labeled DHFR mutant tethered to Ni/NTA supported lipid bilayer via His tag at the C-terminus) and “roughly 70%” (cysteine-labeled DHFR mutant tethered to Ni/NTA supported lipid bilayer via His tag at the N-terminus, FIG. 14A).

The values are drawn from US10672502B2, “Methods for determining protein structure using a surface-selective nonlinear optical technique” (Biodesy, Inc., priority 2015, dated 2020).
